From article PMC7866225, “Microwave-Assisted Synthesis of (Piperidin-1-yl)quinolin-3-yl)methylene)hydrazinecarbothioamides as Potent Inhibitors of Cholinesterases: A Biochemical and In Silico Approach” (Molecules, 2021) come the findings set out here.

Each structure is given as a SMILES string.

Data set [1] has as its target Acetylcholinesterase (AChE) (Electrophorus electricus, UniProt O42275). In words: biochemical. As to conditions: Ellman's method, triplicate; read-out: Acetylcholinesterase (AChE) IC50 ± SEM. The procedure: (§1) Modified Ellman’s method was adopted to investigate the inhibitory potential of newly synthesized compounds against cholinesterase enzymes. The assay protocol involved 96-well plates (100 μL per well). Each well contained 20 μL of assay buffer solution, 10 μL of test sample, and 10 μL of 0.5 U/mg of AChE (for AChE inhibition assay) or 10 μL of 3.4 U/mg of BChE (for BChE inhibition assay). This mixture was incubated at 25 °C for 10 min followed by the addition of substrate (10 μL). For AChE inhibition assay, acetylthiocholine iodide (ATCI, 1 mM) while for BChE assay, butyrylthiocholine chloride (BTCCl, 1 mM), was added. This mixture was incubated for 15 min at 37 °C. Ellman reagent (5,5′-dithio-bis(2-nitrobenzoic acid), DTNB, 3 mM) was added. […] Blank assay was also performed. All the analyses were performed in triplicate. IC50 values were also calculated for the synthesized compounds in GraphPad prism 5.0. using nonlinear regression method.

Data set [2] has as its target Butyrylcholinesterase (BChE) (Equus caballus, UniProt P81908). As to the kind of experiment: biochemical. Conditions: Ellman's method, triplicate; read-out: Butyrylcholinesterse (BChE) IC50 ± SEM. The procedure:
as §1
In general terms: Ellman's reagent forms a yellow product with free thiols.

The next data set deals with HepG2 cells. As to the kind of experiment: In vitro cytotoxicity, MTT assay. The data set is classed as cell-based. Conditions: for Status: HepG2, MTT, 0–1000 µg/mL, 24 h. The procedure:
(§2) HepG2 cell line was obtained from the cell culture laboratory established in The University of Lahore. These cell lines were preserved in cryo vials present in liquid nitrogen. Cryo vials were revived for further processing.
(§3) The cryo vials obtained from liquid nitrogen cylinder were thawed. Then HepG2 cells were cultured in the culturing flask in which DMEM-HG along with 10% fetal bovine serum (FBS), supplemented with […] (Sigma) and 100 U/mL streptomycin (Sigma) were added. Cultures were maintained in a humidified incubator supplied with 5% CO2 at 37 °C. Experiments were performed in triplicates. When cultured HepG2 cells achieved 70–80% confluence their subculturing was conducted. For splitting, the cells attached to the walls of the culturing flask were washed with 1× phosphate buffer saline (PBS) and incubated with 0.05% trypsin-EDTA until cells detached from the surface of culturing flask. The detachment of the cells was confirmed by observing the flask under the inverted microscope. A few drops of FBS were added to the flask and mixed well by stirring. The mixture was centrifuged at 2000 rpm for 5 min. After centrifugation the supernatant was removed, and pellet was resuspended. HepG2 cells were cultured onto 96-well plates for measurement of cell viability. Treatment was given for both compounds at a concentration of 0–1000 µg/mL for 24 h.
(§4) After 4 h formazan crystals were solubilized with 10% sodium dodecylsulphate (SDS) (Invitrogen Inc.) and absorbance was taken at 570 nm. Percentage viability was calculated according to the following formula:% Viable cells = ((abs sample − abs blank) / (abs control − abs blank)) × 100 (1) where abs stands for absorbance.
On the technique in general: Tetrazolium dyes change colour on reduction, which living cells bring about.

Data set [3] is described as follows: In vitro cytotoxicity, MTT assay. The data set is classed as cell-based. Conditions: human, HepG2 cells, 24 h, control = 100, read-out: Cell Viability; for viability at 24 h, 50 μg/mL: HepG2, 50 μg/mL; for viability at 24 h, 100 μg/mL: HepG2, 100 μg/mL; for viability at 24 h, 200 μg/mL: HepG2, 200 μg/mL; for viability at 24 h, 500 μg/mL: HepG2, 500 μg/mL; for viability at 24 h, 1000 μg/mL: HepG2, 1000 μg/mL. As to the method:
as §2, §3, §4

Acetylcholinesterase (AChE), sequence (O42275 24-633): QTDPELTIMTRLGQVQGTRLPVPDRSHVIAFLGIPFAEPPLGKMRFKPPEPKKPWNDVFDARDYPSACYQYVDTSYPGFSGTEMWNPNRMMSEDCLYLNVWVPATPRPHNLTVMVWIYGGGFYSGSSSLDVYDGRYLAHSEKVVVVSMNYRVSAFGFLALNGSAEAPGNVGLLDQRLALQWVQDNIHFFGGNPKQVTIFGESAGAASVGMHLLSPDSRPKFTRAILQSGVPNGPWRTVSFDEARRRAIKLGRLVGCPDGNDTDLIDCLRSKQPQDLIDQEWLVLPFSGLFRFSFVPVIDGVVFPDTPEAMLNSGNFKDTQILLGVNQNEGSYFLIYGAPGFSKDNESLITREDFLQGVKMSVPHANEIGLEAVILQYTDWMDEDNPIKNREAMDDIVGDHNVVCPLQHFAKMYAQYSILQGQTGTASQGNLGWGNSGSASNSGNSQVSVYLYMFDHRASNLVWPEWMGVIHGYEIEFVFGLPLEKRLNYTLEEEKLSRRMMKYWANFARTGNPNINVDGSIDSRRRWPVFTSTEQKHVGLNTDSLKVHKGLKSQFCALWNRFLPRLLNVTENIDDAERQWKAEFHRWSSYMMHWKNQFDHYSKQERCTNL
Butyrylcholinesterase (BChE), sequence (P81908 whole entry): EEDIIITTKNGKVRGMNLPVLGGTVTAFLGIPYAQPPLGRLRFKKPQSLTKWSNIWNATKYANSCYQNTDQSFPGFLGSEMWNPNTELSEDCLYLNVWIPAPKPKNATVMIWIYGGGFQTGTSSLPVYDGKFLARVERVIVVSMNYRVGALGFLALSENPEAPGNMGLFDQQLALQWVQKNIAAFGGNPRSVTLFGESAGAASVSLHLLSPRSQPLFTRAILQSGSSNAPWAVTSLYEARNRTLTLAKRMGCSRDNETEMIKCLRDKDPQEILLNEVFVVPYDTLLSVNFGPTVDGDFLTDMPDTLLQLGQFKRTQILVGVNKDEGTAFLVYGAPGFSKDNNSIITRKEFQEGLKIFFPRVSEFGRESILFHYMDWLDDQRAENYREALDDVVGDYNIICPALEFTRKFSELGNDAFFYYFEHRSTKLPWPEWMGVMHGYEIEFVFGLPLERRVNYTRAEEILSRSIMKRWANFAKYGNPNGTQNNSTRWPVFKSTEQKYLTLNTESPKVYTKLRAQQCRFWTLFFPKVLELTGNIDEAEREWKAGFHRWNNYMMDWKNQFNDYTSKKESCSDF

In the case of `Cc1ccc2nc(N3CCCCC3)c(C=NNC(N)=S)cc2c1` [Compound 5a, 2-((6-Methyl-2-(piperidin-1-yl)quinolin-3-yl)methylene)hydrazinecarbothioamide], the IC50 (in general, the point on the concentration scale where inhibition reaches its midpoint) in data set [1] turned out to be 27.6 ± 0.08 µM. Moreover, the IC50 in data set [2] turned out to be 35.3 ± 0.01 µM. Moreover, the Status entry in the data set with HepG2 cells is “Non-cytotoxic”. In data set [3], the viability (commonly a read-out of living cells in per cent, often relative to untreated cells) at 24 h, 50 μg/mL came out at 95.4%; the viability at 24 h, 100 μg/mL came to 88.9%; the viability at 24 h, 200 μg/mL is 92.8%; the viability at 24 h, 500 μg/mL came out at 95.8%. Besides, the viability at 24 h, 1000 μg/mL in data set [3] was 102%.

With `Cc1ccc2nc(N3CCCCC3)c(C=NNC(=S)Nc3ccccc3)cc2c1` [Compound 5b, 2-((6-Methyl-2-(piperidin-1-yl)quinolin-3-yl)methylene)-N-phenylhydrazinecarbothioamide], the IC50 in data set [1] amounted to 25.1 ± 0.25 µM. Also, the IC50 in data set [2] stood at 33.1 ± 0.09 µM. Besides, the Status result with HepG2 cells was “Proliferative”. Besides, in data set [3], the viability at 24 h, 50 μg/mL came out at 106%; the viability at 24 h, 100 μg/mL came to 107%; the viability at 24 h, 200 μg/mL was determined as 139%; the viability at 24 h, 500 μg/mL worked out at 169%. In data set [3], the viability at 24 h, 1000 μg/mL was found to be 227%.

In the case of `Cc1ccc(NC(=S)NN=Cc2cc3cc(C)ccc3nc2N2CCCCC2)c(C)c1` [Compound 5c, N-(2,4-Dimethylphenyl)-2-((6-methyl-2-(piperidin-1-yl)quinolin-3-yl)methylene)hydrazine carbothioamide], the IC50 in data set [1] stood at 42.3 ± 0.99 µM. Besides, the IC50 in data set [2] amounted to 37.2 ± 0.83 µM. In the data set on HepG2 cells, the Status result is “Proliferative”. Moreover, in data set [3], the viability at 24 h, 50 μg/mL was 105%; the viability at 24 h, 100 μg/mL was determined as 109%; the viability at 24 h, 200 μg/mL was 122%; the viability at 24 h, 500 μg/mL was found to be 188%. Moreover, the viability at 24 h, 1000 μg/mL in data set [3] turned out to be 262%.

On to `Cc1ccc2nc(N3CCCCC3)c(C=NNC(=S)Nc3c(C)cccc3C)cc2c1` [Compound 5d, N-(2,6-Dimethylphenyl)-2-((6-methyl-2-(piperidin-1-yl)quinolin-3-yl)methylene)hydrazine carbothioamide], for which the half-inhibitory concentration (IC50) in data set [1] came out at 25.9 ± 0.96 µM. For the same compound, the IC50 in data set [2] is 29.8 ± 1.2 µM. Also, the Status result in the data set with HepG2 cells is “Proliferative”. Moreover, in data set [3], the viability at 24 h, 50 μg/mL was found to be 105%; the viability at 24 h, 100 μg/mL was determined as 108%; the viability at 24 h, 200 μg/mL is 110%; the viability at 24 h, 500 μg/mL worked out at 134%. In addition, the viability at 24 h, 1000 μg/mL in data set [3] turned out to be 131%.

On to `Cc1ccc2nc(N3CCCCC3)c(C=NNC(=S)Nc3ccccc3Cl)cc2c1` [Compound 5e, N-(2-Chlorophenyl)-2-((6-methyl-2-(piperidin-1-yl)quinolin-3-yl)methylene)hydrazine carbothioamide], for which the half-inhibitory concentration (IC50) in data set [1] came to 35.2 ± 0.54 µM. Further, the IC50 in data set [2] was 40.26 ± 0.17 µM. Moreover, the Status entry with HepG2 cells is given as “Cytotoxic”. For the same compound, in data set [3], the viability at 24 h, 50 μg/mL worked out at 94.2%; the viability at 24 h, 100 μg/mL came out at 97.2%; the viability at 24 h, 200 μg/mL was 158%; the viability at 24 h, 500 μg/mL turned out to be 196%. In data set [3], the viability at 24 h, 1000 μg/mL was 76.3%.

As to `Cc1ccc2nc(N3CCCCC3)c(C=NNC(=S)Nc3cccc(Cl)c3)cc2c1` [Compound 5f, N-(3-Chlorophenyl)-2-((6-methyl-2-(piperidin-1-yl)quinolin-3-yl)methylene)hydrazine carbothioamide], the IC50 in data set [1] stood at 23.9 ± 0.25 µM. In addition, the IC50 in data set [2] worked out at 24.6 ± 0.57 µM. For the same compound, the Status entry with HepG2 cells is recorded as “Cytotoxic”. Further, in data set [3], the viability at 24 h, 50 μg/mL is 84.8%; the viability at 24 h, 100 μg/mL came out at 94.9%; the viability at 24 h, 200 μg/mL is 93.9%; the viability at 24 h, 500 μg/mL worked out at 93.2%. Further, in data set [3], the viability at 24 h, 1000 μg/mL is 56.9%.

Regarding `Cc1ccc2nc(N3CCCCC3)c(C=NNC(=S)Nc3ccc(Cl)cc3)cc2c1` [Compound 5g, N-(4-Chlorophenyl)-2-((6-methyl-2-(piperidin-1-yl)quinolin-3-yl)methylene)hydrazine carbothioamide], the IC50 in data set [1] is 19.85 ± 0.14 µM. For the same compound, in data set [2], the IC50 turned out to be 23.1 ± 0.11 µM. Further, the Status entry with HepG2 cells is listed as “Proliferative”. In addition, in data set [3], the viability at 24 h, 50 μg/mL was 84.3%; the viability at 24 h, 100 μg/mL was determined as 96.4%; the viability at 24 h, 200 μg/mL is 94.1%; the viability at 24 h, 500 μg/mL stood at 122%. In addition, the viability at 24 h, 1000 μg/mL in data set [3] was 135%.

`Cc1ccc2nc(N3CCCCC3)c(C=NNC(=S)Nc3ccccc3F)cc2c1` [Compound 5h, N-(2-Fluorophenyl)-2-((6-methyl-2-(piperidin-1-yl)quinolin-3-yl)methylene)hydrazine carbothioamide]: in data set [1], the IC50 was 31.3 ± 0.37 µM. The half-maximal inhibitory concentration (IC50) in data set [2] came to 25.1 ± 0.99 µM. In addition, in the data set with HepG2 cells, the Status result is listed as “Proliferative”. In data set [3], the viability at 24 h, 50 μg/mL was 113%; the viability at 24 h, 100 μg/mL came out at 121%; the viability at 24 h, 200 μg/mL amounted to 83.8%; the viability at 24 h, 500 μg/mL came to 151%. Further, the viability at 24 h, 1000 μg/mL in data set [3] came to 209%.

As to `Cc1ccc2nc(N3CCCCC3)c(C=NNC(=S)Nc3cccc(F)c3)cc2c1` [Compound 5i, N-(3-Fluorophenyl)-2-((6-methyl-2-(piperidin-1-yl)quinolin-3-yl)methylene)hydrazine carbothioamide], the IC50 in data set [1] came to 24.1 ± 0.43 µM. In addition, the IC50 in data set [2] came out at 36.23 ± 0.02 µM. Also, the Status result in the data set with HepG2 cells is reported as “Proliferative”. In addition, in data set [3], the viability at 24 h, 50 μg/mL is 118%; the viability at 24 h, 100 μg/mL turned out to be 99.4%; the viability at 24 h, 200 μg/mL came out at 97.2%; the viability at 24 h, 500 μg/mL amounted to 99.4%. The viability at 24 h, 1000 μg/mL in data set [3] is 149%.

For `Cc1ccc2nc(N3CCCCC3)c(C=NNC(=S)Nc3ccc(F)cc3)cc2c1` [Compound 5j, N-(4-Fluorophenyl)-2-((6-methyl-2-(piperidin-1-yl)quinolin-3-yl)methylene)hydrazine carbothioamide], the IC50 in data set [1] stood at 28.2 ± 0.94 µM. The IC50 in data set [2] came to 42.4 ± 0.44 µM. In addition, in the data set with HepG2 cells, the Status entry is “Proliferative”. Besides, in data set [3], the viability at 24 h, 50 μg/mL was 93.4%; the viability at 24 h, 100 μg/mL was determined as 98.1%; the viability at 24 h, 200 μg/mL amounted to 107%; the viability at 24 h, 500 μg/mL was determined as 138%. For the same compound, the viability at 24 h, 1000 μg/mL in data set [3] was determined as 166%.

Regarding `CCc1ccc(NC(=S)NN=Cc2cc3cc(C)ccc3nc2N2CCCCC2)cc1` [Compound 5k, N-(4-Ethylphenyl)-2-((6-methyl-2-(piperidin-1-yl)quinolin-3-yl)methylene)hydrazine carbothioamide], the IC50 in data set [1] was 30.6 ± 0.56 µM. For the same compound, the IC50 in data set [2] was 32 ± 0.87 µM. Moreover, in the data set with HepG2 cells, the Status entry is listed as “Proliferative”. Also, in data set [3], the viability at 24 h, 50 μg/mL stood at 111%; the viability at 24 h, 100 μg/mL stood at 110%; the viability at 24 h, 200 μg/mL amounted to 99.6%; the viability at 24 h, 500 μg/mL came out at 106%. The viability at 24 h, 1000 μg/mL in data set [3] was determined as 132%.

Regarding `Cc1ccc2nc(N3CCCCC3)c(C=NNC(=S)NCc3ccccc3)cc2c1` [Compound 5l, N-Benzyl-2-((6-methyl-2-(piperidin-1-yl)quinolin-3-yl)methylene)hydrazinecarbothioamide], in data set [1], the IC50 came out at 35.1 ± 1.2 µM. Moreover, in data set [2], the IC50 is 45.02 ± 0.38 µM. The Status entry with HepG2 cells is listed as “Proliferative”. In data set [3], the viability at 24 h, 50 μg/mL came out at 101%; the viability at 24 h, 100 μg/mL came to 101%; the viability at 24 h, 200 μg/mL worked out at 107%; the viability at 24 h, 500 μg/mL is 109%. In addition, the viability at 24 h, 1000 μg/mL in data set [3] worked out at 133%.

For the compound `N.N.[Cl][Pt][Cl]` [cisplatin, reference compound], the IC50 with HepG2 cells (HepG2, standard drug) worked out at 20 µg/mL.
